Source: PMC3947346 (Psychopharmacology, 2013)

What was measured:
male C57BL/6 J mice [1] = experiment: intermittent access to ethanol
male C57BL/6 J mice [2] = experiment: repeated drinking-in-the-dark
[3] = in vivo pharmacokinetic study, plasma; set-up: species or system mice; conditions: 10 mg/kg p.o.
male C57BL/6 J mice [4] = experiment: blood ethanol concentrations; type: in vivo; conditions: 17 mg/kg p.o.

O=C1CC[C@@]2(O)[C@H]3Cc4ccc(O)c5c4[C@@]2(CCN3CC2CC2)[C@H]1O5 [Naltrexone, reference compound]
IA ethanol drinking (gram per kilogram), effect vs saline vehicle (male C57BL/6 J mice [1]; 10 mg/kg i.p., 2-h access): decreased ethanol drinking | Mean percent decrease of ethanol intake (ml) (male C57BL/6 J mice [1]; IA, 10 mg/kg i.p., 2 h): approximately 36% | DID ethanol intake (gram per kilogram), effect vs vehicle (male C57BL/6 J mice [2]; 0.1, 1, 10 mg/kg i.p., any subsequent hour (2-4 h)): no effect | DID ethanol intake (gram per kilogram), effect vs vehicle (male C57BL/6 J mice [2]; 0.1, 1, 10 mg/kg i.p., first hour, all doses): significantly reduced ethanol drinking | Mean percent decrease of ethanol intake (ml) (male C57BL/6 J mice [2]; DID, 10 mg/kg i.p., initial hour): approximately 57%

COc1nn(-c2ccc(F)c(NC(C)=O)c2)c(=O)n(Cc2ccc(Cl)c(F)c2)c1=O [ADX71441]
Ethanol preference, effect (male C57BL/6 J mice [1]; IA, 3, 10, 17 mg/kg p.o., any time point): not significantly affected | Percent change from baseline, volume of ethanol (male C57BL/6 J mice [1]; IA, 3 mg/kg p.o., 2 h): −3.92±12.96% | Percent change from baseline, volume of ethanol (male C57BL/6 J mice [1]; IA, 3 mg/kg p.o., 4 h): −8.21±7.51% | Percent change from baseline, volume of ethanol (male C57BL/6 J mice [1]; IA, 3 mg/kg p.o., 24 h): 0.31±6.16% | Percent change from baseline, volume of ethanol (male C57BL/6 J mice [1]; IA, 10 mg/kg p.o., 2 h): −37.54±18.17% | Percent change from baseline, volume of ethanol (male C57BL/6 J mice [1]; IA, 10 mg/kg p.o., 4 h): −29.60±10.55 % | Percent change from baseline, volume of ethanol (male C57BL/6 J mice [1]; IA, 10 mg/kg p.o., 24 h): −10.12±5.36% | Percent change from baseline, volume of ethanol (male C57BL/6 J mice [1]; IA, 17 mg/kg p.o., 2 h): −66.39±10.30 % | Percent change from baseline, volume of ethanol (male C57BL/6 J mice [1]; IA, 17 mg/kg p.o., 4 h): −44.07±9.06 % | Percent change from baseline, volume of ethanol (male C57BL/6 J mice [1]; IA, 17 mg/kg p.o., 24 h): −15.30±4.81 % | Percent change from baseline, volume of water (male C57BL/6 J mice [1]; IA, 3 mg/kg p.o., 2 h): 46.78±40.53% | Percent change from baseline, volume of water (male C57BL/6 J mice [1]; IA, 3 mg/kg p.o., 4 h): 17.35±22.27% | Percent change from baseline, volume of water (male C57BL/6 J mice [1]; IA, 3 mg/kg p.o., 24 h): −7.73±19.28% | Percent change from baseline, volume of water (male C57BL/6 J mice [1]; IA, 10 mg/kg p.o., 2 h): 55.56±45.39% | Percent change from baseline, volume of water (male C57BL/6 J mice [1]; IA, 10 mg/kg p.o., 4 h): 19.72±20.18% | Percent change from baseline, volume of water (male C57BL/6 J mice [1]; IA, 10 mg/kg p.o., 24 h): 9.05±18.21% | Percent change from baseline, volume of water (male C57BL/6 J mice [1]; IA, 17 mg/kg p.o., 2 h): −26.90±22.63% | Percent change from baseline, volume of water (male C57BL/6 J mice [1]; IA, 17 mg/kg p.o., 4 h): −9.62±13.96% | Percent change from baseline, volume of water (male C57BL/6 J mice [1]; IA, 17 mg/kg p.o., 24 h): 10.83±11.73% | IA ethanol drinking (gram per kilogram), effect vs vehicle (male C57BL/6 J mice [1]; p.o., 4-h access period, 10 and 17 mg/kg most effective, not at 2 h): reduced ethanol drinking | mean plasma concentration at 4 h as % of the mean Cmax ([3]; 4 h): 72% | mean plasma concentration at 24 h as % of the mean Cmax ([3]; 24 h): 5% | AUC0–8 ([3]; male C57BL/6 mice): 6,970 ng h/ml | C max ± SD ([3]; male C57BL/6 mice): 673 ± 50 ng/mL | Plasma concentration at 0.25 h ([3]; male C57BL/6 mice): 538 ± 51 ng/mL | Plasma concentration ± SD at 1 h ([3]; male C57BL/6 mice): 629 ± 61 ng/mL | Plasma concentration ± SD at 4 h ([3]; male C57BL/6 mice): 487 ± 62 ng/mL | Plasma concentration ± SD at 24 h ([3]; male C57BL/6 mice): 36.4 ± 33 ng/mL | T 1/2 (terminal half-life) ([3]; male C57BL/6 mice): 5.3 h | T max ([3]; male C57BL/6 mice): 2 h | AUClast ± SD ([3]; male C57BL/6 mice, Tlast=24 h): 6,700±309 ng h/ml | BEC after 4 h IA, difference vs vehicle treatment (male C57BL/6 J mice [4]): not statistically different | Average BEC (blood ethanol concentration) (male C57BL/6 J mice [4]; after 4 h IA access, vehicle 47.73±9.18 mg/dl): 35.74 ± 5.34 mg/dL | motor activity, observation (male C57BL/6 J mice [2]; 30 mg/kg p.o.): signs of mild reduction in motor activity in a few animals | DID ethanol intake (gram per kilogram), effect vs vehicle (male C57BL/6 J mice [2]; 3, 10, 30 mg/kg p.o., hours 1-4, post hoc only 10 and 30 mg/kg): significantly and dose-dependently reduced | Percent change from baseline, volume of ethanol (ml) (male C57BL/6 J mice [2]; DID, 3 mg/kg p.o., 1 h): −25.93±11.92% | Percent change from baseline, volume of ethanol (ml) (male C57BL/6 J mice [2]; DID, 3 mg/kg p.o., 2 h): −23.12±7.29% | Percent change from baseline, volume of ethanol (ml) (male C57BL/6 J mice [2]; DID, 3 mg/kg p.o., 3 h): −9.84±6.84% | Percent change from baseline, volume of ethanol (ml) (male C57BL/6 J mice [2]; DID, 3 mg/kg p.o., 4 h): −4.83±8.82% | Percent change from baseline, volume of ethanol (ml) (male C57BL/6 J mice [2]; DID, 10 mg/kg p.o., 1 h): −70.44±13.55 % | Percent change from baseline, volume of ethanol (ml) (male C57BL/6 J mice [2]; DID, 10 mg/kg p.o., 2 h): −57.53±8.28 % | Percent change from baseline, volume of ethanol (ml) (male C57BL/6 J mice [2]; DID, 10 mg/kg p.o., 3 h): −36.11±5.39 % | Percent change from baseline, volume of ethanol (ml) (male C57BL/6 J mice [2]; DID, 10 mg/kg p.o., 4 h): −25.11±7.68 % | Percent change from baseline, volume of ethanol (ml) (male C57BL/6 J mice [2]; DID, 30 mg/kg p.o., 1 h): −80.73±4.11 % | Percent change from baseline, volume of ethanol (ml) (male C57BL/6 J mice [2]; DID, 30 mg/kg p.o., 2 h): −86.04±4.05 % | Percent change from baseline, volume of ethanol (ml) (male C57BL/6 J mice [2]; DID, 30 mg/kg p.o., 3 h): −80.99±4.39 % | Percent change from baseline, volume of ethanol (ml) (male C57BL/6 J mice [2]; DID, 30 mg/kg p.o., 4 h): −69.57±3.89 % | Mean percent change from vehicle baseline, ethanol intake (male C57BL/6 J mice [2]; DID, highest dose (30 mg/kg p.o.), across the 4-h test): −70–80%
